Data published in US4887995A, “Method of treating sickle cell anemia” (University of Pittsburgh, priority 1985, dated 1989).

Tests used:
[1] = tested on: erythrocyte membranes; assay: transport across erythrocyte membranes; assay type: in vitro ADME
[2] = tested on: HbS; assay: chromatographic separation for covalent binding to HbS
[3] = tested on: sickle hemoglobin (HbS); assay: solubility assay: ability of a compound to increase solubility of sickle hemoglobin; assay type: biochemical; conditions: low concentrations (5 mM.); the higher the ratio the higher the activity; compared with DiClBz and p-BrBz
Excerpt: In comparative tests which we reported in J. of Med. Chem., 1984, 27, 103-105, which is incorporated herein by reference, ethacrynic acid was compared with active agents (1) [(3,4-dichlorobenzyl)oxy]acetic acid (DiClBz2) and (2) [(p-bromobenzyl)oxy]acetic acid (p-BrBz). The solubility assay measures the ability of a compound to increase solubility of sickle hemoglobin (HbS). […] The higher the ratio the higher the activity of the compound.

Structure (SMILES): C=C(CC)C(=O)c1ccc(OCC(=O)O)c(Cl)c1Cl [ethacrynic acid]
- ability to cross the red blood cell membrane and react with hemoglobin [1]: confirmed the ability of ethacrynic acid to cross the red blood cell membrane and react with hemoglobin
- covalent binding between HbS and compound [2]: desired tight covalent binding between the HbS and ethacrynic acid had occurred
- solubility ratio [3]: higher solubility ratio than DiClBz and p-BrBz
